Measured values: US20150126546A1, “Treatment of Cognitive Disorders with Certain Alpha-7 Nicotinic Acid Receptors in Combination with Acetylcholinesterase Inhibitors” (Forum Pharmaceuticals, Inc., priority 2009, published 2015)
Structures can show the parent of a compound that is named as a salt.

Key:
Assay type in all cases: in vivo
[1] = tested on: 5-month-old male Wistar rats; test: Object recognition task after scopolamine treatment; details: previous study; for effect on object memory deficit induced by scopolamine: scopolamine 0.1 mg/kg i.p.
[2] = tested on: 5-month-old male Wistar rats; test: as above; details: for d2 difference from zero (one-sample t-tests) / effect on scopolamine-induced object memory dysfunction (comparison with scopolamine alone): present study; for d2 difference from zero (one-sample t-tests) / effect on scopolamine-induced object memory dysfunction (comparison with scopolamine alone) / Mean values (±SEM) of the indices of discrimination (d2) between the new and familiar objects: EVP-6124 0.03 mg/kg p.o., donepezil 0.1 mg/kg p.o., scopolamine 0.1 mg/kg i.p., 1 h delay; for Mean values (±SEM) of the indices of discrimination (d2) between the new and familiar objects: all 30 min before T1, n = 23
Source text: The object recognition task allows the assessment of consolidation of (object) information into memory (Ennaceur and Delacour, 1988; Prickaerts et al., 1997). In this task a rat is given two trials. In the first trial the rat is put into an arena in which two identical objects are placed. Usually, a rate will inspect the two objects for a certain amount of time. After a certain delay, the rat is given a second trial. In this trial the rat is again placed in the same arena but one of the objects has been replaced by a novel object. Similar to the first trial the rat again explores the two objects. The amount of time exploring each object is recorded in order to determine whether the rat spent a different amount of time exploring the two objects. On basis of this scoring the memory performance can be determined.
All drugs were given 30 minutes before the first trial.
All experimental procedures were approved by the local ethical committee of the Maastricht University for animal experiments and met governmental guidelines. Twenty-four 5-month-old male Wistar rats (Harlan, The Netherlands) were used (average body weights: 465 g). […] The animals were individually housed in standard type 3 Makrolon cages on sawdust bedding in an air-conditioned room (about 20° C.). They were kept under a 12/12-hour light/dark cycle (lights on from 19.00 to 7.00 h) and had free access to food and water. Rats were housed in the same room as where the animals were tested. A radio, which was playing softly, provided background noise in the room. All testing was done between 9.00 and maximally 18.00 h.
EVP-6124 was dissolved in H2O. The solution was prepared daily and tested at a dose of 0.03 mg/kg p.o. (injection volume 2 ml/kg). […] Donepezil was dissolved in saline. The solution was prepared daily and tested at a dose of 0.1 mg/kg p.o. (injection volume 2 ml/kg). Administration was always 30 min before trial 1 immediately after (R)-7-chloro-N-(quinuclidin-3-yl)benzo[b]thiophene-2-carboxamide.
Subsequently donepezil, (R)-7-chloro-N-(quinuclidin-3-yl)benzo[b]thiophene-2-carboxamide and the combination of both were tested (n=8 per condition per day of testing). All rats were treated once with each dose condition. […] The experimentator was unaware of the condition/drugs being tested.
The object recognition test was performed as described elsewhere (Ennaceur and Delacour, 1988). The apparatus consisted of a circular arena, 83 cm in diameter. Half of the 40 cm high wall was made of gray polyvinyl chloride, the other half of transparent polyvinyl chloride. The light intensity was equal in the different parts of the apparatus. Two objects were placed in a symmetrical position about 10 cm away from the gray wall. Each object was available in triplicate. The objects were: 1) a cone consisting of a gray polyvinyl chloride base (maximal diameter 18 cm) with a collar on top made of brass (total height 16 cm), 2) a standard 1 l brown transparent glass bottle (diameter 10 cm, height 22 cm) filled with water, 3) a massive metal cube (10.0×5.0×7.5 cm) with two holes (diameter 1.9 cm), and 4) a massive aluminum cube with a tapering top (13.0×8.0×8.0 cm). A rat could not displace the objects. Fluorescent red tubes and a light bulb provided a constant illumination of about 20 lux on the floor of the apparatus.
A testing session comprised two trials. The duration of each trial was 3 min. During the first trial (T1) the apparatus contained two identical objects (samples). A rat was always placed in the apparatus facing the wall at the middle of the front (transparent) segment. After the first exploration period the rat was put back in its home cage.

[3] = tested on: mild to moderate AD patients; details: 0.3 or 1.0 mg/d for 28 days, in addition to donepezil or rivastigmine; domains of non-verbal learning, memory, executive function
Protocol: The safety and efficacy of (R)-7-chloro-N-(quinuclidin-3-yl)benzo[b]thiophene-2-carboxamide HCl salt was assessed in a Phase 1b study of 48 mild to moderate AD patients 60-80 years of age, on stable donepezil (5 or 10 mg/day) or rivastigmine (6-12 mg/day administered as a twice daily dose, i.e., 3 or 6 mg per dose).
Patients were dosed with placebo or two different doses of (R)-7-chloro-N-(quinuclidin-3-yl)benzo[b]thiophene-2-carboxamide (0.3 or 1.0 mg/d) for 28 days. Safety was evaluated by adverse events, ECG, and clinical laboratory measures. Cognitive effects were measured by CogState computerized cognitive testing and a subset of NTB scales (category fluency, Trails A and B).

Structure (SMILES)	effect on object memory deficit induced by scopolamine ([1]; 0.03 mg/kg p.o.)	effect on object memory deficit induced by scopolamine ([1]; 0.3 mg/kg p.o.)	d2 difference from zero (one-sample t-tests) [2]	effect on scopolamine-induced object memory dysfunction (comparison with scopolamine alone) [2]	Mean values (±SEM) of the indices of discrimination (d2) between the new and familiar objects [2]	cognitive function [3]	effect on scopolamine-induced object memory deficit ([1]; 0.1 mg/kg donepezil)	effect on scopolamine-induced object memory deficit ([1]; 0.3 mg/kg donepezil p.o.)	memory of the familiar object after 1 h delay interval ([2]; scopolamine 0.1 mg/kg i.p. alone)
O=C(N[C@H]1CN2CCC1CC2)c1cc2cccc(Cl)c2s1 [EVP-6124, (R)-7-chloro-N-(quinuclidin-3-yl)benzo[b]thiophene-2-carboxamide]	had no effect	completely attenuated	not different from zero	did not improve the memory	0.00 (0.05)	showed an increase in cognitive function			
COc1cc2c(cc1OC)C(=O)C(CC1CCN(Cc3ccccc3)CC1)C2 (centres unmarked) [donepezil, 1-benyzl-4-[(5,6-dimethoxy-1-indanon)-2-yl]methylpiperidine monohydrochloride]			not different from zero	did not improve the memory	−0.02 (0.05)		had no effect	attenuated	
CN1[C@@H]2C[C@@H](OC(=O)[C@H](CO)c3ccccc3)C[C@H]1[C@@H]1O[C@@H]12 [scopolamine]			no difference		0.02 (0.07)				no more memory of the familiar object was found
